Compound `CC(C)(CO)NS(=O)(=O)c1cnc(C#Cc2cnc3c(C(F)(F)F)cc(-c4ccc(C(F)(F)F)cc4)cn23)s1` [Example 196, 2-[8-Trifluoromethyl-6-(4-trifluoromethyl-phenyl)-imidazo[1,2-a]pyridin-3-ylethynyl]-thiazole-5-sulfonic acid (2-hydroxy-1,1-dimethyl-ethyl)-amide] displayed a melting point of 202 to 203 °C.
The value for `CC(C)(CO)NS(=O)(=O)c1cccc(C#Cc2cnn3c(C(F)(F)F)cc(-c4cccc(C(F)(F)F)c4)nc23)c1` [Example 107, N-(2-Hydroxy-1,1-dimethyl-ethyl)-3-[7-trifluoromethyl-5-(3-trifluoromethyl-phenyl)-pyrazolo[1,5-a]pyrimidin-3-ylethynyl]-benzenesulfonamide] was 132 °C; that for `Cc1cc(-c2ccc(Cl)cc2)cn2c(C#Cc3cnc(N)nc3)cnc12` [Example 221, 5-[6-(4-Chloro-phenyl)-8-methyl-imidazo[1,2-a]pyridin-3-ylethynyl]-pyrimidin-2-ylamine] was 263 °C; that for `NS(=O)(=O)c1cnc(C#Cc2cnn3c(C(F)(F)F)cc(-c4cccc(C(F)(F)F)c4)nc23)s1` [Example 105, 2-[7-Trifluoromethyl-5-(3-trifluoromethyl-phenyl)-pyrazolo[1,5-a]pyrimidin-3-ylethynyl]-thiazole-5-sulfonic acid amide] was 251 °C.
Consider `NCCNS(=O)(=O)c1ccc(C#Cc2cnn3c(C(F)(F)F)cc(-c4ccc(C(F)(F)F)cc4)nc23)s1` [Example 263, 5-[7-Trifluoromethyl-5-(4-trifluoromethyl-phenyl)-pyrazolo[1,5-a]pyrimidin-3-ylethynyl]-thiophene-2-sulfonic acid (2-amino-ethyl)-amide], for which the melting point is 161 °C.
The value for `CC(C)(O)c1cc(-c2ccc(Cl)cc2)nc2c(C#Cc3ccc(S(N)(=O)=O)s3)cnn12` [Example 154, 5-[5-(4-Chloro-phenyl)-7-(1-hydroxy-1-methyl-ethyl)-pyrazolo[1,5-a]pyrimidin-3-ylethynyl]-thiophene-2-sulfonic acid amide] was 206 to 208 °C; that for `CC(O)c1ccc(C#Cc2cnc3c(C(F)(F)F)cc(-c4ccc(C(F)(F)F)cc4)cn23)cc1` (stereo not drawn) [Example 195, 1-{4-[8-Trifluoromethyl-6-(4-trifluoromethyl-phenyl)-imidazo[1,2-a]pyridin-3-ylethynyl]-phenyl}-ethanol] was 157 to 158 °C.
Then `CCOc1cccc(-c2cc(C(F)F)n3ncc(C#Cc4ccc(N)nc4)c3n2)c1` [Example 208, 5-[7-Difluoromethyl-5-(3-ethoxy-phenyl)-pyrazolo[1,5-a]pyrimidin-3-ylethynyl]-pyridin-2-ylamine], with 162 °C; and `CC(C)(CO)NS(=O)(=O)c1cncc(C#Cc2cnn3c(C4CC4)cc(-c4ccc(Cl)cc4)nc23)c1` [Example 67, 5-[5-(4-Chloro-phenyl)-7-cyclopropyl-pyrazolo[1,5-a]pyrimidin-3-ylethynyl]-pyridine-3-sulfonic acid (2-hydroxy-1,1-dimethyl-ethyl)-amide], with 230 to 231 °C.
Consider `Cc1nc(N)ccc1C#Cc1cnn2c(C(F)(F)F)cc(-c3ccc(C(F)(F)F)cc3)nc12` [Example 128, 6-Methyl-5-[7-trifluoromethyl-5-(4-trifluoromethyl-phenyl)-pyrazolo[1,5-a]pyrimidin-3-ylethynyl]-pyridin-2-ylamine], for which the melting point lay within 251 to 254 °C.
In turn, `Cc1cc(-c2ccc(Cl)cc2)cn2c(C#Cc3ccc(N)nc3)cnc12` [Example 210, 5-[6-(4-Chloro-phenyl)-8-methyl-imidazo[1,2-a]pyridin-3-ylethynyl]-pyridin-2-ylamine] showed a melting point of 231 to 234 °C.
In turn, `N#Cc1ccc(C#Cc2cnn3c(C(F)(F)F)cc(-c4ccc(C(F)(F)F)cc4)nc23)cn1` [Example 288, 5-[7-Trifluoromethyl-5-(4-trifluoromethyl-phenyl)-pyrazolo[1,5-a]pyrimidin-3-ylethynyl]-pyridine-2-carbonitrile] returned a melting point of 212 °C.
The compound `FC(F)(F)c1ccc(-c2cc(C(F)(F)F)n3ncc(C#Cc4ccccn4)c3n2)cc1` [Example 6, 3-Pyridin-2-ylethynyl-7-trifluoromethyl-5-(4-trifluoromethyl-phenyl)-pyrazolo[1,5-a]pyrimidine] had a melting point of 158 to 159 °C.
Compound `NS(=O)(=O)c1ccc(C#Cc2cnn3c(CO)cc(-c4ccc(Cl)cc4)nc23)cc1` [Example 155, 4-[5-(4-Chloro-phenyl)-7-hydroxymethyl-pyrazolo[1,5-a]pyrimidin-3-ylethynyl]-benzenesulfonamide] gave a melting point of 238 to 240 °C.
The value for `Cc1cc(-c2ccc(Cl)cc2)nc2c(C#Cc3ccc(S(N)(=O)=O)cc3)cnn12` [Example 292, 4-[5-(4-Chloro-phenyl)-7-methyl-pyrazolo[1,5-a]pyrimidin-3-ylethynyl]-benzenesulfonamide] was 230 to 233 °C; that for `Cc1cc(-c2cc(C(F)F)n3ncc(C#Cc4ccc(S(=O)(=O)NCCN(C)C)s4)c3n2)ccc1Cl` [Example 256, 5-[5-(4-Chloro-3-methyl-phenyl)-7-difluoromethyl-pyrazolo[1,5-a]pyrimidin-3-ylethynyl]-thiophene-2-sulfonic acid (2-dimethylamino-ethyl)-amide] was 149 °C; that for `NS(=O)(=O)c1cc(C#Cc2cnn3c(C(F)(F)F)cc(-c4ccc(C(F)(F)F)cc4)nc23)ccc1F` [Example 50, 2-Fluoro-5-[7-trifluoromethyl-5-(4-trifluoromethyl-phenyl)-pyrazolo[1,5-a]pyrimidin-3-ylethynyl]-benzenesulfonamide] was 254 to 255 °C.
Then `NS(=O)(=O)c1ccc(C#Cc2cnn3c(C4CC4)cc(-c4ccc(Cl)c(Cl)c4)nc23)cc1` [Example 88, 4-[7-Cyclopropyl-5-(3,4-dichloro-phenyl)-pyrazolo[1,5-a]pyrimidin-3-ylethynyl]-benzenesulfonamide], with 259 to 261 °C.
As for `NS(=O)(=O)c1cc(C#Cc2cnn3c(C(F)(F)F)cc(-c4ccc(Cl)c(Cl)c4)nc23)c(F)cc1F` [Example 92, 5-[5-(3,4-Dichloro-phenyl)-7-trifluoromethyl-pyrazolo[1,5-a]pyrimidin-3-ylethynyl]-2,4-difluoro-benzenesulfonamide], the melting point was in the range of 308 to 310 °C.
Then `Cc1cc(-c2cc(C(F)F)n3ncc(C#Cc4ccc(S(=O)(=O)NC(C)(C)CO)s4)c3n2)ccc1Cl` [Example 175, 5-[5-(4-Chloro-3-methyl-phenyl)-7-difluoromethyl-pyrazolo[1,5-a]pyrimidin-3-ylethynyl]-thiophene-2-sulfonic acid (2-hydroxy-1,1-dimethyl-ethyl)-amide], with 145 °C; and `COCCNS(=O)(=O)c1cccc(C#Cc2cnn3c(C(F)F)cc(-c4ccc(C(F)(F)F)cc4)nc23)c1` [Example 146, 3-[7-Difluoromethyl-5-(4-trifluoromethyl-phenyl)-pyrazolo[1,5-a]pyrimidin-3-ylethynyl]-N-(2-methoxy-ethyl)-benzenesulfonamide], with 147 to 148 °C; and `NS(=O)(=O)c1ccc(C#Cc2cnn3c(C(F)(F)F)cc(-c4ccc(Cl)c(Cl)c4)nc23)s1` [Example 89, 5-[5-(3,4-Dichloro-phenyl)-7-trifluoromethyl-pyrazolo[1,5-a]pyrimidin-3-ylethynyl]-thiophene-2-sulfonic acid amide], with 231 to 232 °C.
Then `CC(C)(C)NS(=O)(=O)c1cccc(C#Cc2cnn3c(C(F)(F)F)cc(-c4ccc(C(F)(F)F)cc4)nc23)c1` [Example 24, N-tert-Butyl-3-[7-trifluoromethyl-5-(4-trifluoromethyl-phenyl)-pyrazolo[1,5-a]pyrimidin-3-ylethynyl]-benzenesulfonamide], with 192 to 200 °C.
Then `Cc1nc(C#Cc2cnn3c(C(F)(F)F)cc(-c4ccc(C(F)(F)F)cc4)nc23)sc1S(=O)(=O)NC(C)(C)CO` [Example 53, 4-Methyl-2-[7-trifluoromethyl-5-(4-trifluoromethyl-phenyl)-pyrazolo[1,5-a]pyrimidin-3-ylethynyl]-thiazole-5-sulfonic acid (2-hydroxy-1,1-dimethyl-ethyl)-amide], with 216 to 218 °C.
As to `FC(F)(F)c1ccc(-c2cc(C(F)(F)F)n3ncc(C#Cc4cncnc4)c3n2)cc1` [Example 44, 3-Pyrimidin-5-ylethynyl-7-trifluoromethyl-5-(4-trifluoromethyl-phenyl)-pyrazolo[1,5-a]pyrimidine], the melting point is 175 °C.
The value for `NS(=O)(=O)c1ccc(C#Cc2cnn3c(CO)cc(-c4ccc(Cl)cc4)nc23)s1` [Example 156, 5-[5-(4-Chloro-phenyl)-7-hydroxymethyl-pyrazolo[1,5-a]pyrimidin-3-ylethynyl]-thiophene-2-sulfonic acid amide] was 194 to 196 °C; that for `CC(C)(CO)NS(=O)(=O)c1cncc(C#Cc2cnn3ccc(-c4ccc(Cl)cc4)nc23)c1` [Example 74, 5-[5-(4-Chloro-phenyl)-pyrazolo[1,5-a]pyrimidin-3-ylethynyl]-pyridine-3-sulfonic acid (2-hydroxy-1,1-dimethyl-ethyl)-amide] was 185 to 186 °C.
`NS(=O)(=O)c1ccc(C#Cc2cnc3c(C(F)(F)F)cc(-c4ccc(C(F)(F)F)cc4)nn23)s1` [Example 236, 5-[8-Trifluoromethyl-6-(4-trifluoromethyl-phenyl)-imidazo[1,2-b]pyridazin-3-ylethynyl]-thiophene-2-sulfonic acid amide] gave a melting point of 261 to 263 °C.
With `NC(=O)c1ccc(C#Cc2cnn3c(C(F)F)cc(-c4ccc(C(F)(F)F)cc4)nc23)cn1` [Example 206, 5-[7-Difluoromethyl-5-(4-trifluoromethyl-phenyl)-pyrazolo[1,5-a]pyrimidin-3-ylethynyl]-pyridine-2-carboxylic acid amide], the melting point lay within 276 to 277 °C.
With `Oc1cncc(C#Cc2cnn3c(C(F)(F)F)cc(-c4ccc(C(F)(F)F)cc4)nc23)c1` [Example 58, 5-[7-Trifluoromethyl-5-(4-trifluoromethyl-phenyl)-pyrazolo[1,5-a]pyrimidin-3-ylethynyl]-pyridin-3-ol], the melting point was 258 to 260 °C.
